Reference: patent publication US20240124381A1, “Renewable Bio-advantaged plasticizer generated by reductive coupling of lignin-derived aromatics” (Alliance for Sustainable Energy, LLC, priority 2022, published 2024)

Assays:
[1] = Glass transition temperature of plasticized PVC by differential scanning calorimetry (DSC); type: physicochemical; conditions: PVC composite with 10 wt % plasticizer; unplasticized PVC 83.0 ° C.; lower preferred
Excerpt: (§1) FIG. 5 provides thermal analysis of lignin-derived biaryl plasticizers. From left to right: unplasticized PVC, 10 wt % plasticized PVC with DEHP, and 10 wt % plasticized PVC with lignin-derived biaryl plasticizers.
(§2) Plasticizer properties of lignin-derived biaryls. The above results provide access to all possible homo- and cross-coupled BPDA derivatives of H, G, and S. These structures provide the basis for testing of these materials as plasticizers for PVC and comparison of their performance relative to the existing petroleum-derived incumbent, di(2-ethylhexyl)phthalate (DEHP). Each of the BPDA methyl esters was subjected to Ti(OBu)4-promoted transesterification with 2-ethylhexanol to afford the corresponding DEH-BPDA derivatives, designated H—H^PL, H-G^PL, H—S^PL, G-G^PL, G-S^PL, and S—S^PL. The thermal properties of these structures were characterized by thermogravimetric analysis (TGA) and differential scanning calorimetry (DSC). DEHP and the DEH-BPDA derivatives were then individually integrated with PVC at 10 wt %, and the composites were analyzed by TGA and DSC to identify their glass transition temperature (Tg) and the temperature at which the polymer degrades with 10% or 50% loss of its original weight (Td10, Td50). The former value reflects the ability of the plasticizer to soften PVC, while the latter values reflect the thermostability of the composite material. […]

[2] = Thermostability of plasticized PVC by thermogravimetric analysis (TGA); type: physicochemical; conditions: PVC composite with 10 wt % plasticizer; PVC itself 272 ° C.; higher preferred
Excerpt: as §1, §2

CCCCC(CC)COC(=O)c1ccccc1C(=O)OCC(CC)CCCC (centres unmarked) [DEHP, di(2-ethylhexyl)phthalate]
glass transition temperature (Tg) [1]: 52.1 °C | Td10 (temperature at which the polymer degrades with 10% loss of its original weight) [2]: 253 °C
